# Test results as given in patent US10946028B2, “Polymer conjugate of sulfoxide derivative-coordinated platinum(II) complex” (priority 2015, dated 2021).
# Where “and” joins values, the source holds several entries; their conditions need not be identical. Equal entries are not always repeated. Where two headings read alike, the source gives them in different places.
# Key:
# [1] = Maximum tolerable dose (MTD dose) in the antitumor tests; format: in vivo, BALB/cA-nu/nu mice; details: administered once intravenously, nude mice
# Description: Human gastric cancer 4-1ST was collected from the subcutaneous sites of nude mice, and the tumors were finely cut into blocks each measuring about 3 mm on one side. The tumor blocks thus obtained were transplanted subcutaneously into the dorsal side of nude mice using a trocar. On the 18th day after transplantation, when the average tumor volume reached about 100 to 200 mm^3, various drugs were intravenously administered through the caudal vein. […] As control drugs, 1-OHP was administered once at a dose of 20 mg/kg, and cisplatin was administered once at a dose of 10 mg/kg. […]
# (§1) Human gastric cancer 4-1ST was collected from subcutaneous sites of nude mice, and the tumors were finely cut into blocks each measuring about 3 mm on one side. […] After the administration of the various drugs, the major axes (L) and the minor axes (W) of the tumors were measured over time using calipers, and the tumor volumes (L×W×W×0.5) were calculated. […]
# as §1
# [2] = system: Human gastric cancer 4-1ST; experiment: Antitumor Test 1, human gastric cancer 4-1ST-transplanted mouse; format: in vivo, BALB/cA-nu/nu mice
# Text: (§2) Human gastric cancer 4-1ST was subcultured and maintained subcutaneously in BALB/cA-nu/nu mice (hereinafter, nude mice). Human gastric cancer 4-1ST was purchased from Central Institute for Experimental Animals.
# Human gastric cancer 4-1ST was collected from the subcutaneous sites of nude mice, and the tumors were finely cut into blocks each measuring about 3 mm on one side. The tumor blocks thus obtained were transplanted subcutaneously into the dorsal side of nude mice using a trocar. On the 18th day after transplantation, when the average tumor volume reached about 100 to 200 mm^3, various drugs were intravenously administered through the caudal vein. […] As control drugs, 1-OHP was administered once at a dose of 20 mg/kg, and cisplatin was administered once at a dose of 10 mg/kg. Regarding the amounts of administration of 1-OHP and cisplatin, and the high amounts of administration of the various Example compounds, the maximum tolerable dose (MTD dose) was employed in all cases.
# After the administration of the various drugs, the major axes (L) and the minor axes (W) of the tumors were measured over time using calipers, and the tumor volumes (L×W×W×0.5) were calculated. The test was carried out using four animals per group in all cases for a non-administered group and various drug-administered groups. For a period starting from the initiation of administration to the 20th day after administration, the relative tumor volume (T/C (%)) of each of the drug-administered groups was calculated by the following formula, based on the relative tumor volume of the non-administered group as 100, as an index of the antitumor effect. T/C (%)=Relative tumor volume of administered group/relative tumor volume of non-administered group×100 Formula: […]
# [3] = system: Human gastric cancer 4-1ST; experiment: Antitumor Test 3, human gastric cancer 4-1ST-transplanted mouse; format: in vivo, BALB/cA-nu/nu mice
# Text: as §2
# Human gastric cancer 4-1ST was collected from subcutaneous sites of nude mice, and the tumors were finely cut into blocks each measuring about 3 mm on one side. The tumor blocks thus obtained were transplanted subcutaneously into the dorsal side of nude mice using a trocar. On the 17th day after transplantation, when the average tumor volume reached about 100 to 200 mm^3, various drugs were intravenously administered through the caudal vein. […] As a control drug, 1-OHP or cisplatin (CDDP) was administered once at a dose of 18 mg/kg or 10 mg/kg. Regarding the high amounts of administration of the administered compounds, the maximum tolerable dose (MTD dose) was employed in all cases. After the administration of the various drugs, the major axes (L) and the minor axes (W) of the tumors were measured over time using calipers, and the tumor volumes (L×W×W×0.5) were calculated. The test was carried out using four animals per group in all cases for a non-administered group and various drug-administered groups. For a period starting from the initiation of administration to the 21st day after administration, the T/C (%) values of the various drug-administered groups are presented in Table 5.
# [4] = system: Human gastric cancer 4-1ST; experiment: Antitumor Test 2, human gastric cancer 4-1ST-transplanted mouse; format: in vivo, BALB/cA-nu/nu mice; details: 18 mg/kg once i.v.
# Text: as §2
# Human gastric cancer 4-1ST was collected from subcutaneous sites of nude mice, and the tumors were finely cut into blocks each measuring about 3 mm on one side. The tumor blocks thus obtained were transplanted subcutaneously into the dorsal side of nude mice using a trocar. On the 18th day after transplantation, when the average tumor volume reached about 100 to 200 mm^3, various drugs were intravenously administered through the caudal vein. […] As a control drug, 1-OHP was administered once at a dose of 18 mg/kg. […] Regarding Example 3 compound, the dose was less than or equal to the MTD dose; however, the dissolution limit of the compound was administered. After the administration of the various drugs, the major axes (L) and the minor axes (W) of the tumors were measured over time using calipers, and the tumor volumes (L×W×W×0.5) were calculated. The test was carried out using four animals per group in all cases for a non-administered group and various drug-administered groups. For a period starting from the initiation of administration to the 21st day after administration, the T/C (%) values of the various drug-administered groups are presented in Table 4.
# DAN-G cells = experiment: Proliferation inhibition test, concentration/time dependency; format: cell-based, Human
# Description: Human pancreatic cancer cell line, DAN-G, was purchased from Asta Medica GmbH, and the cells were proliferated and subcultured in a recommended medium described in the pamphlet.
# For DAN-G cells that had been cultured and proliferated on a 10 cm dish for cell culture, the culture fluid was removed, and the cells were washed once with 5 ml of PBS (phosphate buffered physiological saline). Subsequently, 1 ml of 0.25% trypsin/0.05% EDTA (ethylenediaminetetraacetic acid)/PBS was added to the cells, and the mixture was left to stand for 5 minutes at 37° C. After it was confirmed that the cells had been detached from the dish, 9 ml of medium was added to the dish to disperse the cells, the dispersion was transferred into a 15 ml tube (Corning, Inc.), and the dispersion was centrifuged for 5 minutes at 1,000 rpm. A supernatant was removed, subsequently 10 ml of fresh medium was added to the tube, and the cells were suspended. A portion of the cells was stained with Trypan Blue, and the viable cell count was measured using a hemocytometer. The suspended cells were diluted with medium to a concentration of 2.6×10^4 cells/ml, and the cells were inoculated onto five sheets of 96 well plate (Plates A, B, C, D, and E) at a volume of 190 μl/well (5×10^3 cells/well).
# The cells were then cultured under the conditions of 37° C. and 5% CO2. Three replica wells were provided for each drug concentration.
# A test was performed under five different conditions by changing the drug addition time.
# For Plates A, B, C, D, and E that had been cultured for 72 hours as described above, the medium was removed, subsequently methanol was added to the plates, and the cells were thereby immobilized on the plates. After methanol was removed, a 0.05% Methylene Blue solution was added to the plate, and the cells were stained for 30 minutes. Methylene Blue was removed, any excess stain solution was washed with water, subsequently 3% hydrochloric acid was added to the plate at a volume of 200 μl/well, and thus Methylene Blue was extracted. The plates were left to stand for 2 hours or longer, and the absorbance at 660 nm was measured using a microplate reader (BENCHMARK PLUS, manufactured by Bio-Rad Laboratories, Inc.). Regarding the measured values, the average value of three replicas of a well for each drug concentration was taken. The proliferation inhibition ratio GI(x) % at a drug concentration x was calculated by the following formula from the absorbance values thus measured. GI(x)%=(1−(Ax−B)/(A0−B))×100
# [5] = Body weight change in Antitumor Test 3; format: in vivo; details: 18 mg/kg once i.v., body weight on day of initiation = 1
# Text: Human gastric cancer 4-1ST was collected from subcutaneous sites of nude mice, and the tumors were finely cut into blocks each measuring about 3 mm on one side. The tumor blocks thus obtained were transplanted subcutaneously into the dorsal side of nude mice using a trocar. On the 17th day after transplantation, when the average tumor volume reached about 100 to 200 mm^3, various drugs were intravenously administered through the caudal vein. […] Regarding the high amounts of administration of the administered compounds, the maximum tolerable dose (MTD dose) was employed in all cases. After the administration of the various drugs, the major axes (L) and the minor axes (W) of the tumors were measured over time using calipers, and the tumor volumes (L×W×W×0.5) were calculated. The test was carried out using four animals per group in all cases for a non-administered group and various drug-administered groups.
# After the administration, the body weights of the mice were measured over time.
smiles,measurement,setting,value
"N.N.[Cl][Pt][Cl] [Cisplatin, cisplatin]",Maximum tolerable dose (MTD dose),[1],10 mg/kg
same,T/C (%) on days after each administration,"[2]; 10 mg/kg once i.v., day 0",100%
same,T/C (%) on days after each administration,"[2]; 10 mg/kg once i.v., day 3",91%
same,T/C (%) on days after each administration,"[2]; 10 mg/kg once i.v., day 6",49%
same,T/C (%) on days after each administration,"[2]; 10 mg/kg once i.v., day 9",32%
same,T/C (%) on days after each administration,"[2]; 10 mg/kg once i.v., day 13",31%
same,T/C (%) on days after each administration,"[2]; 10 mg/kg once i.v., day 16",35%
same,T/C (%) on days after each administration,"[2]; 10 mg/kg once i.v., day 20",36%
same,T/C (%) on days after each administration,"[3]; 10 mg/kg once i.v., day 0",100%
same,T/C (%) on days after each administration,"[3]; 10 mg/kg once i.v., day 4",77%
same,T/C (%) on days after each administration,"[3]; 10 mg/kg once i.v., day 7",43%
same,T/C (%) on days after each administration,"[3]; 10 mg/kg once i.v., day 11",32%
same,T/C (%) on days after each administration,"[3]; 10 mg/kg once i.v., day 14",36%
same,T/C (%) on days after each administration,"[3]; 10 mg/kg once i.v., day 18",37%
same,T/C (%) on days after each administration,"[3]; 10 mg/kg once i.v., day 21",42%
"O=C1[O][Pt]2([NH][C@@H]3CCCC[C@H]3[NH]2)[O]C1=O [l-OHP, Oxaliplatin]",T/C (%) on days after each administration,[4]; day 0,100%
same,T/C (%) on days after each administration,[4]; day 3,100%
same,T/C (%) on days after each administration,[4]; day 7,65%
same,T/C (%) on days after each administration,[4]; day 10,58%
same,T/C (%) on days after each administration,[4]; day 14,57%
same,T/C (%) on days after each administration,[4]; day 17,61%
same,T/C (%) on days after each administration,[4]; day 21,60%
same,Maximum tolerable dose (MTD dose),[1]; listed as 1-OHP,20 mg/kg and 18 mg/kg
same,IC50,"DAN-G cells; drug exposure 6 hours, 72 hours total culture, concentration in terms of DACH-platin, read-out: IC50, 6 hours",9000 nM
same,IC50,"DAN-G cells; drug exposure 24 hours, 72 hours total culture, concentration in terms of DACH-platin, read-out: IC50, 24 hours",1800 nM
same,IC50,"DAN-G cells; drug exposure 48 hours, 72 hours total culture, concentration in terms of DACH-platin, read-out: IC50, 48 hours",900 nM
same,IC50,"DAN-G cells; drug exposure 72 hours, concentration in terms of DACH-platin, read-out: IC50, 72 hours",900 nM
same,IC50 (6 hours)/IC50 (72 hours),DAN-G cells; ratio of IC50 values,10.0
same,IC50,"DAN-G cells; read-out: IC50, 2 hour, drug exposure 2 hours, 72 hours total culture, concentration in terms of DACH-platin",44100 nM
same,Relative body weight on days after administration,[5]; day 0,1.00
same,Relative body weight on days after administration,[5]; day 4,0.78
same,Relative body weight on days after administration,[5]; day 7,0.83
same,Relative body weight on days after administration,[5]; day 11,0.93
same,Relative body weight on days after administration,[5]; day 14,1.03
same,Relative body weight on days after administration,[5]; day 18,1.09
same,Relative body weight on days after administration,[5]; day 21,1.05
same,T/C (%) on days after each administration,"[2]; 20 mg/kg once i.v., day 0",100%
same,T/C (%) on days after each administration,"[2]; 20 mg/kg once i.v., day 3",96%
same,T/C (%) on days after each administration,"[2]; 20 mg/kg once i.v., day 6",53%
same,T/C (%) on days after each administration,"[2]; 20 mg/kg once i.v., day 9",46%
same,T/C (%) on days after each administration,"[2]; 20 mg/kg once i.v., day 13",46%
same,T/C (%) on days after each administration,"[2]; 20 mg/kg once i.v., day 16",51%
same,T/C (%) on days after each administration,"[2]; 20 mg/kg once i.v., day 20",50%
same,T/C (%) on days after each administration,"[3]; 18 mg/kg once i.v., day 0",100%
same,T/C (%) on days after each administration,"[3]; 18 mg/kg once i.v., day 4",84%
same,T/C (%) on days after each administration,"[3]; 18 mg/kg once i.v., day 7",52%
same,T/C (%) on days after each administration,"[3]; 18 mg/kg once i.v., day 11",50%
same,T/C (%) on days after each administration,"[3]; 18 mg/kg once i.v., day 14",50%
same,T/C (%) on days after each administration,"[3]; 18 mg/kg once i.v., day 18",60%
same,T/C (%) on days after each administration,"[3]; 18 mg/kg once i.v., day 21",57%
